{"source": "patent US8802414B2", "about": "“Methods and materials for reducing biofilms” (priority 2007, dated 2014)", "key": {"[1]": {"test_system": "pre-formed S. lugdunensis biofilms", "test": "Microtiter plate biofilm detachment assay", "format": "cell-based, Staphylococcus lugdunensis", "method": "40 mM sodium metaperiodate (NaIO4, Sigma-Aldrich) in water, 40 μg/mL purified recombinant dispersin B (obtained from Kane Biotech Inc., Winnipeg, Manitoba, Canada) in sodium phosphate buffer (50 mM sodium phosphate (pH 5.8), 100 mM NaCl), 100 μg/mL proteinase K (Roche Applied Science) in 10 mM Tris-HCl pH 7.5, 10 U/mL trypsin (Promega Corp., Madison, Wis.) in 10 mM Tris-HCl pH 7.5, 100 μg/mL chymotrypsin (Sigma-Aldrich) in 10 mM Tris-HCl pH 7.5, and 100 μg/mL thermolysin (Sigma-Aldrich) in 10 mM Tris-HCl pH 7.5 were tested for their ability to detach pre-formed S. lugdunensis biofilms from polystyrene microtiter plate wells. For certain experiments, proteinase K was inactivated by boiling for 40 minutes.\nBiofilms grown in TSBgluc1% were formed in wells of microtiter plates and washed twice with deionized water, as described above for the microtiter plate biofilm formation assay. 100 μL of NaIO4, enzyme, or suitable control was carefully added so as not to mechanically detach biofilms on the bottoms of wells. Plates were incubated at 37° C. for 2 hours, and contents of wells were discarded and washed twice with deionized water. Plates were air-dried overnight, stained with 0.1% safranin for 1 minute, and processed as described above to quantify the amount of stained biofilm remaining after treatment, relative to treatment with the control reagent. Four wells were measured for each treatment condition. Assays were repeated two or three times on separate days with similar results."}, "[2]": {"test_system": "S. lugdunensis clinical isolates", "test": "Microtiter plate biofilm formation assay", "format": "cell-based, Staphylococcus lugdunensis", "method": "(§1) Bacteria stored at −70° C. were freshly streaked on sheep's blood agar or trypticase soy agar before each replicate experiment. For microtiter plate biofilm formation and detachment assays, immunodetection assays, and confocal microscopy assays (unless stated otherwise), isolated colonies from 16 to 24 hour-old plates were grown in trypticase soy broth (BD BBL, Franklin Lakes, N.J.) supplemented with 1% (w/v) sterile-filtered glucose (TSBgluc1%) with shaking at 130 rpm for 22-24 hours. Unless otherwise noted, all experiments were incubated in ambient air at 37° C.\n(§2) Biofilm formation was assayed using a microtiter plate assay as described elsewhere (Christensen et al., J. Clin. Microbiol., 22:996-1006 (1985)), with modifications as described elsewhere (Chaignon et al., Appl. Microbiol. Biotechnol., 75(1):125-132 (2007) and Frank and Patel, Diagn. Microbiol. Infect. Dis., 57:355-359 (2007)). Briefly, cultures were adjusted with TSBgluac1% to match the turbidity of a 1.0 McFarland standard (˜1-2×10^8 cfu/mL) and diluted 1:50 in TSBgluc1% or TSBgluc1% containing various concentrations of sodium chloride (1-5%, w/v) or ethanol (0.5-4%, v/v). For experiments examining the effect of glucose concentration on biofilm formation, bacteria were grown overnight, adjusted to 1.0 McFarland, and diluted in TSB containing the corresponding amount of glucose being tested (0.5-5%, w/v). 200 μL aliquots of each diluted culture were placed into four wells of 96-well microtiter plates (Nuclon Delta, Nalge Nunc International, Rochester, N.Y.), and incubated for 24 hours. Cell growth was measured by reading the OD600 nm on a microplate reader (Multiskan, Thermo Electron, Waltham, Mass.). Culture media was discarded, and wells were washed twice by fully submerging plates in deionized water to remove non-adherent cells and allowed to air-dry overnight. Biofilms remaining in the wells were stained with 0.1% safranin for 1 minute, rinsed under running tap water to remove excess stain, and air-dried overnight. In order to ensure homogeneity among stained material in the wells, stained biofilms were resuspended in 200 μL of 30 percent glacial acetic acid, and the OD492 nm was measured."}, "[3]": {"test_system": "S. aureus SA113", "test": "Microtiter plate biofilm formation assay", "format": "cell-based, Staphylococcus aureus", "method": "as §1, §2"}, "[4]": {"test_system": "S. epidermidis RP62A", "test": "Microtiter plate biofilm formation assay", "format": "cell-based, Staphylococcus epidermidis", "method": "as §1, §2"}, "[5]": {"test_system": "pre-formed biofilms of S. epidermidis RP62A", "test": "Microtiter plate biofilm detachment assay", "format": "cell-based, Staphylococcus epidermidis", "settings": "2 hours at 37° C.; safranin OD492"}, "[6]": {"test_system": "pre-formed biofilms of S. carnosus TM300+pCN27", "test": "Microtiter plate biofilm detachment assay", "format": "cell-based, Staphylococcus carnosus", "settings": "2 hours at 37° C.; safranin OD492"}, "[7]": {"settings": "2 hours at 37° C., safranin OD492, 15 clinical isolates"}, "[8]": {"settings": "increasing ethanol concentrations (0.5-4% v/v) in TSBgluc1%"}, "[9]": {"settings": "increasing salt concentrations (1-5% sodium chloride)"}}, "note": "“Also recorded” adds a separate entry of the source."}
{"compound": "chymotrypsin", "values": [{"measurement": "biofilm detachment compared to buffer", "setting": "[1]; [7]", "result": "detach S. lugdunensis biofilms selectively"}]}
{"compound": "CCO", "note": "[ethanol]", "values": [{"measurement": "adherence", "setting": "[2]; 2% ethanol, all S. lugdunensis that formed measurable baseline biofilms", "result": "prevent the adherence"}, {"measurement": "killing / growth of isolates", "setting": "[2]; 2% ethanol, isolates IDRL-2554, IDRL-2640 and IDRL-5254 only", "result": "killed; also recorded: inhibited growth"}, {"measurement": "killing of bacteria", "setting": "[2]; 4% ethanol, all S. lugdunensis isolates", "result": "bactericidal"}, {"measurement": "levels of biofilm production", "setting": "[2]; most ethanol concentrations, isolates with baseline biofilm OD492 >=0.150", "result": "reduced the levels of biofilm production"}, {"measurement": "biofilm production", "setting": "[3]; [8]", "result": "significant reductions in biofilm production"}, {"measurement": "biofilm production", "setting": "[4]; [8]", "result": "significant reductions in biofilm production"}]}
{"compound": "[Cl-].[Na+]", "note": "[sodium chloride]", "values": [{"measurement": "biofilm formation", "setting": "[2]; 5% sodium chloride", "result": "Essentially no measurable quantity of biofilm could be detected"}, {"measurement": "S. lugdunensis isolates that formed more biofilm", "setting": "[2]; TSBgluc1% containing 1 or 2% sodium chloride, 11/15 isolates", "result": 73, "unit": "%"}, {"measurement": "adherence to microtiter wells", "setting": "[2]; higher concentrations of salt (above 2% sodium chloride)", "result": "substantially reduced"}, {"measurement": "growth (optical density of the biomass in each well)", "setting": "[2]; [9]", "result": "not affected"}, {"measurement": "biofilm compared to baseline biofilm formation", "setting": "[3]; 5% sodium chloride", "result": "significantly reduced, yet still discernable"}, {"measurement": "biofilm levels", "setting": "[3]; TSBgluc1% with 1-2% sodium chloride", "result": "increase"}, {"measurement": "growth (optical density of the biomass in each well)", "setting": "[3]; [9]", "result": "not affected"}, {"measurement": "biofilm compared to baseline biofilm formation", "setting": "[4]; 5% sodium chloride", "result": "not affected"}, {"measurement": "biofilm levels", "setting": "[4]; TSBgluc1% with 1-3% sodium chloride", "result": "increase"}, {"measurement": "growth (optical density of the biomass in each well)", "setting": "[4]; [9]", "result": "not affected"}]}
{"compound": "trypsin", "values": [{"measurement": "biofilm detachment compared to buffer", "setting": "[1]; [7]", "result": "Concordant results"}, {"measurement": "biofilm release", "setting": "[1]; isolates IDRL-2414 and IDRL-2526, 10 U/mL, 2 hours at 37° C.", "result": "noticeably more resistant to release"}, {"measurement": "biofilm detachment compared to buffer", "setting": "[5]", "result": "Concordant results"}, {"measurement": "biofilm detachment compared to buffer", "setting": "[6]", "result": "Concordant results"}]}
{"compound": "[Na+].[O-][I+3]([O-])([O-])[O-]", "note": "[sodium metaperiodate]", "values": [{"measurement": "S. lugdunensis biofilms on whose release there was moderate to little effect", "setting": "[1]; 40 mM, 2 hours at 37° C., 8/15 isolates", "result": 53, "unit": "%"}, {"measurement": "biofilm detachment compared to buffer", "setting": "[1]; seven isolates IDRL-2394, IDRL-2526, IDRL-2554, IDRL-2588, IDRL-2622, IDRL-2640, IDRL-5258, 40 mM, 2 hours", "result": "greater susceptibility"}, {"measurement": "biofilm detachment compared to buffer", "setting": "[5]", "result": "substantial detachment"}, {"measurement": "biofilm detachment compared to buffer", "setting": "[6]", "result": "essentially completely released"}]}
